Measured values published in patent US20040265917A1, “Methods of measuring the ability of a test compound to inactivate a biological target in cells of a subject” (priority 2003, published 2004).

How the values were obtained:
MetAP-2 [1] = molecular target: T1, MetAP-2 (Rattus norvegicus, UniProt P38062); experiment: Free MetAP-2 ELISA (streptavidin plates, Compound 1 capture) in white blood cells and tissues of rats after a single dose, Phase IIa/IIb; format: in vivo, Sprague-Dawley rats
T1 construct: percentage of free MetAP-2 remaining in white blood cells, liver, spleen, lymph nodes and thymus; from tissue; host or cells: white blood cells, liver, spleen, lymph nodes, thymus of Sprague-Dawley rats
T1 sequence (P38062 whole entry): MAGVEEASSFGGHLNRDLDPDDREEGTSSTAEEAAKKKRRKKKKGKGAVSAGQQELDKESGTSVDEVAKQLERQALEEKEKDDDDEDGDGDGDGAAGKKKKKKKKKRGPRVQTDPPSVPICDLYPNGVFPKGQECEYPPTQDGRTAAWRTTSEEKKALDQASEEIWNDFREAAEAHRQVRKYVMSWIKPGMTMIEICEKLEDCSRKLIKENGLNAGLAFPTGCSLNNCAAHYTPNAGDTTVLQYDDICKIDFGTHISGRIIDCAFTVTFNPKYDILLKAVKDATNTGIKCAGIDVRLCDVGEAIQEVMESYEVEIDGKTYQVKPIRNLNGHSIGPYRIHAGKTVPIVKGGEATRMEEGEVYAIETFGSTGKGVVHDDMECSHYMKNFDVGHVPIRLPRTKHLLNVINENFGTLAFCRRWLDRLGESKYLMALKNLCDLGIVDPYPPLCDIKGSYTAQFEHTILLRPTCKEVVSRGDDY
Experimental: Determination of Free MetAP-2 in Rat White Blood Cell Lysates and tissues Following Administration of Compound 2
Preparation of WBC Lysates
Spleen Homogenization and Lysis Procedure
Liver, Thymus and Lymph Nodes Homogenization and Lysis Procedure
Treat 20 μL of each lysate dividing into polypropylene 96-well plates: +Compound 2 Samples (Background Controls): Dilute 40 mM Compound 2 stock 1:4000 for a 10 μM working stock and add 2 μL to background samples for a final concentration of 1 μM Compound 2.
Dilute 40 mM Compound 1 stock 1:4000 for a 10 μM working stock and add 2 μL of diluted to the samples and 5 μL to the rMetAP2 standards for a final concentration of 1 μM; cover, tap gently to mix, and incubate for 1 hr at room temperature without shaking.
Remove the streptavidin plates from 4° C. at least 30 min prior to use Dilute each of the samples 1:10 (180 μL into the 20 μL sample) with PBST and mix well.
Transfer 20 μL and 40 μL aliquots of the diluted samples to streptavidin plates, adding to 30 μL and 10 μL of PBST (for total volumes of 50 μL each), and mix well: duplicate aliquots of each volume for the signal samples (signal sample=−Compound 2) and single aliquots of each volume for the background samples (background samples=+Compound 2).
Cover and incubate the plates at room temperature on plate shaker for 1 hr at medium speed.
Wash 3 times manually with 50 μL of 2% (w/v) SDS. Flick plate briskly over sink to remove 2% SDS. Tap on napkin to blot.
Add 50 μL of 1:500 anti-MetAP2 antibody in PBST using 12 channel pipette, so triplicates receive antibody at same time, cover and incubate at room temp. on plate shaker for 1 hr at medium speed. One plate requires 5 mL of PBST plus 10 μL of anti-MetAP2 antibody.
Add 50 μL of 1:5000 goat anti-rabbit-HRP antibody in PBST using the 12 channel pipette, cover and incubate at room temperature on plate shaker for 1 hr at medium speed. One plate requires 5 mL of PBST plus 1 μL anti-rabbit-HRP antibody. Aliquot 50 μL per well.
10 minutes after adding the TMB substrate, add 100 μL of 1 N H2SO4 and then measure the absorbance at 450 nm.
The purpose of this study was to determine the percentage of free MetAP-2 remaining in white blood cells, liver, spleen, lymph nodes and thymus as a pharmacodynamic marker of Compound 2 activity after a single dose was administered to Sprague-Dawley rats.
A repeat examination of MetAP-2 inhibition in WBCs was conducted with various dose levels of Compound 2, administered either IV or PO in female SD rats. In addition, thymus and liver were collected and snap frozen in liquid nitrogen for MetAP-2 analysis.
At 4, 24, 48, 72, 96, 120 hours post dose whole blood (≧3.0 mL) was taken from anesthetized animals (isoflurane inhalation to effect) via cardiac puncture, using a 20 gauge needle. Blood was immediately placed into EDTA tubes and stored at 4-8° C.
After blood collection animals were sacrificed by CO2 inhalation. The entire thymus and left lateral lobe of the liver were minced, placed into separate tissue cassettes, and snap frozen in liquid nitrogen for future MetAP-2 analysis.
To characterize MetAP-2 turnover in tissues after a single oral administration of Compound 2 and to determine if any sex difference existed.
Blood and tissue samples were collected from SD rats after receiving a single dose of Compound 2. Inhibition of MetAP-2 by Compound 2 was monitored using an ELISA designed to measure the amount of free MetAP-2 in a sample. Cells were lysed and then treated with Compound 1. Compound 1 covalently binds to the active site of MetAP-2 molecules that have not already been derivatized by Compound 2. The resulting biotinylated MetAP-2 is captured onto immobilized streptavidin, then detected with an anti-MetAP-2 antibody and an enzyme-linked secondary antibody. Phase I was used as a pilot study to determine if MetAP-2 inhibition could be monitored in female SD rat white blood cell (WBC) lysates after a single 30 mg/kg dose of Compound 2 administered IV, IP, PO or SC. […]

MetAP-2 [2] = molecular target: T2, MetAP-2 (Mus musculus, UniProt O08663); experiment: Free MetAP-2 ELISA in tumor and liver tissue of mice bearing B16F10 murine melanoma tumors; format: in vivo, C57BL/6 mice; conditions: 3 or 30 mg/kg PO every other day; samples 24 hours after last dose
T2 construct: from tissue; host or cells: B16F10 murine melanoma tumor and liver of male C57BL/6 mice
T2 sequence (O08663 whole entry): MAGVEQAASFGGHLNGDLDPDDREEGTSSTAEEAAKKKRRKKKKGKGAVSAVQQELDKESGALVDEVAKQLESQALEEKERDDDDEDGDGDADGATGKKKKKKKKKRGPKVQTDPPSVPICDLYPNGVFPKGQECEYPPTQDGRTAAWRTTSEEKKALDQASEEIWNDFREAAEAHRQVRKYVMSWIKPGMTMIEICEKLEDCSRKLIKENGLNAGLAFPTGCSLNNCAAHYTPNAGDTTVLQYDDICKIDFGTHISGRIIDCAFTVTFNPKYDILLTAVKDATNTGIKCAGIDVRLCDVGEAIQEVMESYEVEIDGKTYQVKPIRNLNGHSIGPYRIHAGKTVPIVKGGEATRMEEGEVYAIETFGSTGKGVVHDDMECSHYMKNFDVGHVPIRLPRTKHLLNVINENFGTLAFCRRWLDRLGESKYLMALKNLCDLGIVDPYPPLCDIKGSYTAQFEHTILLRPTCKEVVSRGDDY
Experimental: (§1) Male C57BL/6 mice were divided into six groups of 10 mice each. Each mouse received an implant of 10^6B16F10 murine melanoma cells in 100 μL of PBS above the leg. At day seven following implantation, one group of mice (Group 6) began a regimen of 100 mg/kg Compound 2 every other day, administered oral gavage (PO). At day 13 post implantation, the remaining groups began receiving treatment as follows: Group 1: […] vehicle (11 % hydroxypropyl cyclodextrin) every other day; Group 2: 5-fluorouracil 50 mg/kg in 1% propylene glycol/D5W, PO every other day; Group 3: Compound 2, 3 mg/kg PO every other day; Group 4: Compound 2, 30 mg/kg PO, every other day; Group 5: Compound 2, 100 mg/kg PO, every other day. In each group, the last dose was administered on day 19 post implantation, and blood, spleen, tumor, thymus and liver samples were collected from the mice 24 hours following the last dose.
(§2) The tissue samples were prepared for analysis following the protocols set forth in Example 2 and analyzed for free MetAP-2 using the ELISA protocol of Example 2. The prepared tissue samples were also analyzed for free MetAP-2 activity using the following protocol.
The results of this study are set forth in FIG. 5, which provides a comparison of the results obtained in tumor tissue and liver tissue using the ELISA protocol and those obtained using the gel-shift analysis.

MetAP-2 [3] = molecular target: T2, MetAP-2; experiment: Free MetAP-2 gel shift assay with fluorescent fumagillin analogue (Compound 3) in tumor and liver tissue of mice bearing B16F10 murine melanoma tumors; format: in vivo, C57BL/6 mice; conditions: 3 or 30 mg/kg PO every other day; samples 24 hours after last dose
Experimental: as §1, §2
1. Dilute samples in 1.5 mL eppendorf tubes to their desired concentration in lysis buffer in 10 uL volume. See calculations.
2. To each tube, add 1 uL of 10 uM Compound 3stock that has been diluted in lysis buffer.
3. Incubate on ice for 1.0 hours. […]

MetAP-2 [4] = molecular target: T1, MetAP-2; experiment: Phase I pilot free MetAP-2 ELISA (streptavidin beads) in white blood cell lysates after a single dose; format: in vivo, female Sprague-Dawley rats; conditions: single 30 mg/kg dose IV, IP, PO or SC; female SD rats; all routes of administration
Experimental: MetAP-2 inhibition in white blood cells (WBC) was examined after a single dose (30 mg/kg) of Compound 2 , administered either by intravenous (IV), intraperitoneal (IP), oral gavage (PO) or subcutaneous (SC) routes, to female Sprague-Dawley (SD) rats
A ≧1.0 mL whole blood sample was taken from 3 animals/group/time point (4, 24, 48, 72, 96, and 120 hours post dose) for MetAP-2 analysis. Each animal was bled only once by conscious jugular venipuncture. Blood was immediately placed into EDTA tubes and stored at 4-8° C. Two blood smears from each sample were made for possible differential count analysis.
Blood and tissue samples were collected from SD rats after receiving a single dose of Compound 2. Inhibition of MetAP-2 by Compound 2 was monitored using an ELISA designed to measure the amount of free MetAP-2 in a sample. Cells were lysed and then treated with Compound 1. […] The resulting biotinylated MetAP-2 is captured onto immobilized streptavidin, then detected with an anti-MetAP-2 antibody and an enzyme-linked secondary antibody. Phase I was used as a pilot study to determine if MetAP-2 inhibition could be monitored in female SD rat white blood cell (WBC) lysates after a single 30 mg/kg dose of Compound 2 administered IV, IP, PO or SC. […] Following this analysis it was determined that signal from sample replicates were highly variable and the assay required revision. […]

[5] = Phase IIb, 3 mg/kg PO single dose, 48 hr

For CO[C@@H]1[C@H](OC(=O)N[C@@H](C(N)=O)C(C)C)CC[C@]2(CO2)[C@H]1[C@@]1(C)O[C@@H]1CC=C(C)C [Compound 2, (1-Carbamoyl-2-methyl-propyl)-carbamic acid-(3R, 4S, 5S, 6R )-5-methoxy-4-[(2R, 3R)-2-methyl-3-(3-methyl-but-2-enyl)-oxiranyl]-1-oxa-spiro[2.5]oct-6-yl ester], the “duration of inhibition of MetAP-2 in WBC” value (MetAP-2 [1]; Phase IIa, female SD rats, 30 mg/kg PO versus 0.3 and 3 mg/kg PO, single dose) was “more prolonged inhibition”, the “sex differences in MetAP-2 inhibition” value (MetAP-2 [1]; Phase IIb, male and female SD rats, 0.3 and 3 mg/kg PO, single dose) was “no consistent sex differences” and the “effect on free MetAP-2 levels in tissues other than WBC and liver (spleen, thymus, lymph nodes)” value (MetAP-2 [1]; Phase IIb, 0.3 mg/kg PO, single dose) was “no significant effect”. The “free MetAP-2 level in WBC, average (±SEM)” value (MetAP-2 [1]; [5]) was 13%±4%, the “free MetAP-2 level in liver, average (±SEM)” value (MetAP-2 [1]; [5]) was 13%±5% and the “free MetAP-2 level in lymph nodes, average (±SEM)” value (MetAP-2 [1]; [5]) was 63%±16%. The “free MetAP-2 level in spleen, average (±SEM)” value (MetAP-2 [1]; [5]) was 41%±5%, the “free MetAP-2 level in thymus tissue” value (MetAP-2 [1]; [5]) was “recovered completely” and the “recovery of free MetAP-2 in WBC, 3 mg/kg versus 0.3 mg/kg group” value (MetAP-2 [1]; Phase IIb, single PO dose, by 72 hr) was “recovered to similar free MetAP-2 levels”. The “rank order of responsiveness of organs (MetAP-2 inhibition relative to WBC)” value (MetAP-2 [1]; Phase IIb, single PO dose, tissues plotted relative to WBC) was “liver (most inhibited)>spleen≅lymph nodes>thymus”, the “average free MetAP-2 remaining in tissues when no measurable free MetAP-2 in WBC” value (MetAP-2 [1]; groups with no measurable free MetAP-2 in the WBC) was ≤ 3% and the inhibition at 3 mg/kg (MetAP-2 [1]; rat, Phase IIb, 3 mg/kg PO single dose, four hours after dosing, WBC, liver, spleen, thymus, lymph nodes, read-out: average inhibition of MetAP-2 in all compartments) was ≥ 95%. For the same compound, the “free MetAP-2 levels in liver tissue relative to controls (ELISA)” value (MetAP-2 [2]) was “dose-dependent decrease”, the “free MetAP-2 levels in tumor tissue relative to controls (ELISA)” value (MetAP-2 [2]) was “dose-dependent decrease” and the “free MetAP-2 levels in liver tissue relative to controls (gel shift)” value (MetAP-2 [3]) was “dose-dependent decrease”. For the same compound, the “free MetAP-2 levels in tumor tissue relative to controls (gel shift)” value (MetAP-2 [3]) was “dose-dependent decrease” and the “free MetAP-2 signal in WBC lysates” value (MetAP-2 [4]) was “reduction followed by a recovery”.
